According to patent US9376454B2, “Beta-lactamase inhibitors” (priority 2013, dated 2016):
pIC50: −log10 of the molar value.

Assays:
Format in all cases: biochemical
p99 AmpC β-lactamase = target: T1, p99 AmpC β-lactamase (Enterobacter cloacae, UniProt P05364); experiment: β-Lactamase inhibition enzyme assay, p99 AmpC
T1 construct: made in house; host or cells: E. coli BL21(DE3)
Description: (§1) For SHV-5, Kpc-2, p99AmpC and OXA-1 β-lactamases, E. coli BL21(DE3) bacterial cells carrying expression plasmids (expressed as native untagged proteins) for the individual β-lactamases were grown in 1 L of Superbroth (Teknova Inc. Hollister, Calif.) supplemented with 100 μg/ml kanamycin selection and 1×5052 (0.5% glycerol, 0.05% glucose and 0.2% α-lactose) at 35° C. for 18-20 hours. Cells were harvested by centrifugation (4,000×g, 4° C., 20 min), resuspended in 50 ml of 10 mM HEPES pH 7.5 ( 1/20 of the initial volume). The cells were lysed by sonication (5 pulses of 45 seconds) at 45 W on ice. The lysates were clarified by centrifugation at 10,000×g for 40 minutes at 4° C. Samples were diluted 5-fold in 50 mM sodium acetate pH 5.0, stored overnight at 4° C., after which they were centrifuged at 10,000×g for 30 minutes to clarify, and filtered through 0.45 μm filters. The samples were loaded onto a 5 ml Capto S sepharose cation exchange column (GE Healthcare) pre-equilibrated with 50 mM sodium acetate pH 5.0. The column was washed with 5 column volumes of 50 mM sodium acetate pH 5.0 to wash out unbound protein and a linear gradient of NaCl (0 to 500 mM) was used to elute the protein (over 16 CV) from the column. Fractions were assayed for β-lactamase activity using Centa (Calbiochem, Gibbstown, N.J.) or Nitrocefin (EMD Millipore chemicals, Darmstadt, Germany) as a reporter β-lactamase substrate for activity in the isolated fractions. Active fractions were pooled, concentrated and further purified by gel filtration chromatography on a Superdex 75 prep grade gel filtration column (GE Healthcare, Piscataway, N.J.) pre-equilibrated in 50 mM Hepes pH 7.5, 150 mM NaCl. Active fractions were pooled concentrated, quantitated by BCA protein determination (Thermo Scientific, Rockford, Ill.), dialyzed into PBS and frozen at −80° C. in 20% glycerol until use.
(§2) An equal volume of diluted enzyme stock was added, and the plates were incubated at 37° C. for 15 min. Nitrocefin was used as substrate for p99 AmpC, VIM-2 and OXA-1 and dispensed into each well at a final concentration of 100 μM. Absorbance at 486 nm was immediately monitored for 10 min using a Biotek Powerwave XS2 microplate spectrophotometer using the GEN5 softweare package (Biotek Instruments, Winooski Vt.). In an analogous fashion, imipenem was used as substrate for Kpc-2 and Cefotaxime was used for SHV-5, while changes in absorbance upon hydrolysis of the β-lactam ring were monitored at 300 nm and 260 nm respectively in UV-transparent 96-well microtiter assay plates. Maximum rates of hydrolysis were compared to those in control wells (without inhibitors), and percentages of enzyme inhibition were calculated for each concentration of inhibitor. The concentration of inhibitor needed to reduce the initial rate of hydrolysis of substrate by 50% (IC50) was calculated as the residual activity of β-lactamase at 486 nm using GraFit version 7 kinetics software package (Erithacus Software, Surrey, UK).

OXA-1 β-lactamase = target: T2, OXA-1 β-lactamase (Escherichia coli, UniProt P13661); experiment: β-Lactamase inhibition enzyme assay, OXA-1; conditions: Nitrocefin 100 μM as substrate, 486 nm; 15 min at 37° C. with enzyme, PBS pH 7.4; read-out: Class D OXA-1 IC50
T2 construct: made in house; host or cells: E. coli BL21(DE3)
Description: as §1, §2

SHV-5 β-lactamase = target: T3, SHV-5 β-lactamase (Klebsiella pneumoniae, UniProt P0A3M1); experiment: β-Lactamase inhibition enzyme assay, SHV-5
T3 construct: made in house; host or cells: E. coli BL21(DE3)
Description: as §1, §2

[1] = target: T4, VIM-2 metallo β-lactamase (Pseudomonas aeruginosa, UniProt Q9K2N0); experiment: β-Lactamase inhibition enzyme assay, VIM-2; conditions: Nitrocefin 100 μM as substrate, 486 nm; 15 min at 37° C. with enzyme, PBS pH 7.4; read-out: Class B VIM-2 IC50
T4 construct: made in house; host or cells: E. coli BL21(DE3)
Description: as §1
For Vim-2 metallo β-lactamase, the procedure was identical with the following exceptions, first the protein was not pH adjusted to pH 5 with 50 mM sodium acetate, second, the chromatography step was changed to a 5 ml Q sepharose anion exchange column pre-equilibrated with 50 mM Hepes pH 7.5, and elution of the protein was achieved by a linear gradient of NaCl (0-600 mM). Finally, the VIM-2 purification required a second run (3rd step) on the Q sepharose anion exchange column to achieve acceptable purity (>90%).
as §2

KPC-2 β-lactamase = target: T5, KPC-2 β-lactamase (Klebsiella pneumoniae, UniProt Q9F663); experiment: β-Lactamase inhibition enzyme assay, KPC-2; conditions: imipenem as substrate, 300 nm; 15 min at 37° C. with enzyme, PBS pH 7.4; read-out: Class A KPC-2 IC50
T5 construct: made in house; host or cells: E. coli BL21(DE3)
Description: as §1, §2

T3 sequence (P0A3M1 22-286): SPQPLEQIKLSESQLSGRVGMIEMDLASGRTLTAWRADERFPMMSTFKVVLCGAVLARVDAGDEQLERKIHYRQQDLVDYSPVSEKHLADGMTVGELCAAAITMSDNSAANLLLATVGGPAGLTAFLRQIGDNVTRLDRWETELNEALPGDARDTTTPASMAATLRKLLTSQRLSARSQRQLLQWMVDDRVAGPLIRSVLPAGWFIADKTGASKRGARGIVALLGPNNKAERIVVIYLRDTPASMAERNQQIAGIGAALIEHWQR
T5 sequence (Q9F663 25-293, looked up): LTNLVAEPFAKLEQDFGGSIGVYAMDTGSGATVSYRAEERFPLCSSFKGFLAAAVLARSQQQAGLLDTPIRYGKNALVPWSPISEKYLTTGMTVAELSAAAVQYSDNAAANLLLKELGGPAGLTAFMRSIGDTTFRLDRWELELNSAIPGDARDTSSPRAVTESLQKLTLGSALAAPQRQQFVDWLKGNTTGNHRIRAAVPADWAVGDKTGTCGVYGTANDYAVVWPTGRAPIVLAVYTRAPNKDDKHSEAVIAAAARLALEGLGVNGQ
T1 sequence (P05364 21-381): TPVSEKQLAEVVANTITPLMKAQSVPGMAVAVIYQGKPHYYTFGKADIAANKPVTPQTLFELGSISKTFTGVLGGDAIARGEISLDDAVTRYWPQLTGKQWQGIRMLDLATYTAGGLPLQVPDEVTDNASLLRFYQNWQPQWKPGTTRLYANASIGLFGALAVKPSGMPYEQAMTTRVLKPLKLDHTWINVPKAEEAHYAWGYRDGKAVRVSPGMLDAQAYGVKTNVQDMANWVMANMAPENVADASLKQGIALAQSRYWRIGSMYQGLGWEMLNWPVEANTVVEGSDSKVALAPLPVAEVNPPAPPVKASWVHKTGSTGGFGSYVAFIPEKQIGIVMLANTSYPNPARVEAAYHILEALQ
T2 sequence (P13661 26-276): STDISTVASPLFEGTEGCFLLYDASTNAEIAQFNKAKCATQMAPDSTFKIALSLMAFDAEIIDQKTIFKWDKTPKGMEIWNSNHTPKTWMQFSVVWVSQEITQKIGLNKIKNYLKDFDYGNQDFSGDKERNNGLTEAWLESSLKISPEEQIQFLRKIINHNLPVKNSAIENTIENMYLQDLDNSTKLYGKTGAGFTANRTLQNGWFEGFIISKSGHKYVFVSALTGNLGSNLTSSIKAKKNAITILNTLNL

SMILES	pIC50 (p99 AmpC β-lactamase)	pIC50 (OXA-1 β-lactamase)	pIC50 (SHV-5 β-lactamase)	pIC50 [1]	pIC50 (KPC-2 β-lactamase)
O=C(N[C@H]1Cc2cccc(C(=O)O)c2OB1O)c1ccc(-c2ccncc2)cc1 [Example 27, (R)-2-hydroxy-3-(4-(pyridin-4-yl)benzamido)-3,4-dihydro-2H-benzo[e][1,2]oxaborinine-8-carboxylic acid]	> 7.00	> 7.00	> 7.00	5.00 to 6.00	> 7.00
O=C1Cc2cc(C(=O)N[C@H]3Cc4cccc(C(=O)O)c4OB3O)ccc2N1 [Example 33, (R)-2-Hydroxy-3-[(2-oxo-2,3-dihydro-1H-indole-5-carbonyl)-amino]-3,4-dihydro-2H-benzo[e][1,2]oxaborinine-8-carboxylic acid]	> 7.00	> 7.00	> 7.00	6.00 to 7.00	> 7.00
CN1CCc2cc(C(=O)N[C@H]3Cc4cccc(C(=O)O)c4OB3O)ccc2C1 [Example 7, (R)-2-hydroxy-3-(2-methyl-1,2,3,4-tetrahydroisoquinoline-6-carboxamido)-3,4-dihydro-2H-benzo[e][1,2]oxaborinine-8-carboxylic acid]	> 7.00	6.00 to 7.00	> 7.00	6.00 to 7.00	> 7.00
NCCNc1ccc(CC(=O)N[C@H]2Cc3cccc(C(=O)O)c3OB2O)cc1 [Example 57, (R)-3-(2-(4-(2-aminoethylamino)phenyl)acetamido)-2-hydroxy-3,4-dihydro-2H-benzo[e][1,2]oxaborinine-8-carboxylic acid]	> 7.00	> 7.00	> 7.00	5.00 to 6.00	> 7.00
Cc1ccc(C(=O)N[C@H]2Cc3cccc(C(=O)O)c3OB2O)cc1N [Example 23, (R)-3-(3-amino-4-methylbenzamido)-2-hydroxy-3,4-dihydro-2H-benzo[e][1,2]oxaborinine-8-carboxylic acid]	> 7.00	> 7.00	> 7.00	6.00 to 7.00	> 7.00
NCCn1ccc2c(C(=O)N[C@H]3Cc4cccc(C(=O)O)c4OB3O)cccc21 [Example 42, (R)-3-{[1-(2-Amino-ethyl)-1H-indole-4-carbonyl]-amino}-2-hydroxy-3,4-dihydro-2H-benzo[e][1,2]oxaborinine-8-carboxylic acid]	> 7.00	> 7.00	> 7.00	6.00 to 7.00	> 7.00
NCCN1Cc2ccc(C(=O)N[C@H]3Cc4cccc(C(=O)O)c4OB3O)cc2C1 [Example 11, (R)-3-(2-(2-aminoethyl)isoindoline-5-carboxamido)-2-hydroxy-3,4-dihydro-2H-benzo[e][1,2]oxaborinine-8-carboxylic acid]	> 7.00	> 7.00	> 7.00	6.00 to 7.00	> 7.00
NCCOc1ccc(CC(=O)N[C@H]2Cc3cccc(C(=O)O)c3OB2O)cc1O [Example 59, (R)-3-(2-(4-(2-aminoethoxy)-3-hydroxyphenyl)acetamido)-2-hydroxy-3,4-dihydro-2H-benzo[e][1,2]oxaborinine-8-carboxylic acid]	> 7.00	> 7.00	> 7.00	6.00 to 7.00	> 7.00
O=C(N[C@H]1Cc2cccc(C(=O)O)c2OB1O)c1ccc2c(c1)CNC2 [Example 9, (R)-2-hydroxy-3-(isoindoline-5-carboxamido)-3,4-dihydro-2H-benzo[e][1,2]oxaborinine-8-carboxylic acid]	> 7.00	> 7.00	> 7.00	> 7.00	> 7.00
O=C(N[C@H]1Cc2cccc(C(=O)O)c2OB1O)c1ccc2nccnc2c1 [Example 29, (R)-2-hydroxy-3-(quinoxaline-6-carboxamido)-3,4-dihydro-2H-benzo[e][1,2]oxaborinine-8-carboxylic acid]	> 7.00	> 7.00	> 7.00	5.00 to 6.00	> 7.00
O=C(O)c1ccccc1C(=O)N[C@H]1Cc2cccc(C(=O)O)c2OB1O [Example 53, (R)-3-(2-carboxybenzamido)-2-hydroxy-3,4-dihydro-2H-benzo[e][1,2]oxaborinine-8-carboxylic acid]	> 7.00	> 7.00	6.00 to 7.00	5.00 to 6.00	6.00 to 7.00
NCCNc1ccc(CC(=O)N[C@H]2Cc3cccc(C(=O)O)c3OB2O)cn1 [Example 60, (R)-3-(2-(6-(2-aminoethylamino)pyridin-3-yl)acetamido)-2-hydroxy-3,4-dihydro-2H-benzo[e][1,2]oxaborinine-8-carboxylic acid]	> 7.00	> 7.00	> 7.00	6.00 to 7.00	> 7.00
CN1Cc2ccc(C(=O)N[C@H]3Cc4cccc(C(=O)O)c4OB3O)cc2C1 [Example 10, (R)-2-hydroxy-3-(2-methylisoindoline-5-carboxamido)-3,4-dihydro-2H-benzo[e][1,2]oxaborinine-8-carboxylic acid]	> 7.00	> 7.00	> 7.00	> 7.00	> 7.00
O=C(Cc1cnc2c(c1)CCCN2)N[C@H]1Cc2cccc(C(=O)O)c2OB1O [Example 13, (R)-2-hydroxy-3-(2-(5,6,7,8-tetrahydro-1,8-naphthyridin-3-yl)acetamido)-3,4-dihydro-2H-benzo[e][1,2]oxaborinine-8-carboxylic acid]	> 7.00	> 7.00	> 7.00	5.00 to 6.00	6.00 to 7.00
O=C(N[C@H]1Cc2cccc(C(=O)O)c2OB1O)c1ccc(O)c(O)c1 [Example 39, (R)-3-(3,4-dihydroxybenzamido)-2-hydroxy-3,4-dihydro-2H-benzo[e][1,2]oxaborinine-8-carboxylic acid]	> 7.00	> 7.00	6.00 to 7.00	6.00 to 7.00	> 7.00
NCc1ccc(CC(=O)N[C@H]2Cc3cccc(C(=O)O)c3OB2O)cc1CN [Example 20, (R)-3-(2-(3,4-bis(aminomethyl)phenyl)acetamido)-2-hydroxy-3,4-dihydro-2H-benzo[e][1,2]oxaborinine-8-carboxylic acid]	> 7.00	> 7.00	> 7.00	> 7.00	> 7.00
CN1Cc2ccc(CC(=O)N[C@H]3Cc4cccc(C(=O)O)c4OB3O)cc2C1 [Example 48, (R)-2-Hydroxy-3-[2-(2-methyl-2,3-dihydro-1H-isoindol-5-yl)-acetylamino]-3,4-dihydro-2H-benzo[e][1,2]oxaborinine-8-carboxylic acid]	> 7.00	> 7.00	> 7.00	> 7.00	> 7.00
O=C(N[C@H]1Cc2cccc(C(=O)O)c2OB1O)c1ccc2nc[nH]c2c1 [Example 34, (R)-3-[(3H-Benzoimidazole-5-carbonyl)-amino]-2-hydroxy-3,4-dihydro-2H-benzo[e][1,2]oxaborinine-8-carboxylic acid]	> 7.00	> 7.00	> 7.00	6.00 to 7.00	> 7.00
